From ChEMBL document CHEMBL1201862, “PubChem BioAssay data set” (2004)
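48-hour exposure; five concentrations; linearly interpolated endpoints. GI50 marks 50% less growth.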 Active and inactive are the calls of the source. Cut-off read from the data, not from the text of the source: active = GI50 up to about 1.1 µM and inactive = higher.

Tests used:
Experiment in all cases: NCI tumour cell line growth inhibition, 48 h
Hs-578T = tested on: Hs-578T
NCI/ADR-RES = tested on: NCI/ADR-RES
SN12C = tested on: SN12C
HCT-15 = tested on: HCT-15
COLO 205 = tested on: COLO 205
SF-295 = tested on: SF-295
SK-MEL-5 = tested on: SK-MEL-5
NCI-H23 = tested on: NCI-H23
SR = tested on: SR
CCRF-CEM = tested on: CCRF-CEM
IGROV-1 = tested on: IGROV-1
SK-MEL-28 = tested on: SK-MEL-28
ACHN = tested on: ACHN
K562 = tested on: K562
HOP-92 = tested on: HOP-92
MDA-N = tested on: MDA-N
SK-MEL-2 = tested on: SK-MEL-2
RPMI-8226 = tested on: RPMI-8226
MOLT-4 = tested on: MOLT-4
SF-539 = tested on: SF-539

## OC(Cc1cccnc1)(c1ccccc1)c1ccccc1
Hs-578T
  GI50: > 100 µM (inactive)
NCI/ADR-RES
  GI50: 57.9 µM (inactive)
SN12C
  GI50: > 100 µM (inactive)
HCT-15
  GI50: > 100 µM
COLO 205
  GI50: > 100 µM (inactive)
SF-295
  GI50: 53.8 µM (inactive)
SK-MEL-5
  GI50: 32.9 µM (inactive)
NCI-H23
  GI50: 70.8 µM (inactive)
SR
  GI50: 58.7 µM (inactive)
CCRF-CEM
  GI50: > 100 µM (inactive)
IGROV-1
  GI50: > 100 µM (inactive)
SK-MEL-28
  GI50: > 100 µM (inactive)
ACHN
  GI50: > 100 µM (inactive)
K562
  GI50: 72.1 µM (inactive)
HOP-92
  GI50: > 100 µM (inactive)
MDA-N
  GI50: 47.2 µM (inactive)
SK-MEL-2
  GI50: > 100 µM (inactive)
RPMI-8226
  GI50: 42.9 µM (inactive)

## Clc1ccc(-c2c(C3=NCCCN3)nnn2-c2ccc(Cl)cc2)cc1
Hs-578T
  GI50: 26.9 µM (inactive)
NCI/ADR-RES
  GI50: > 50.6 µM (inactive)
SN12C
  GI50: 64 µM (inactive)
HCT-15
  GI50: 75.5 µM
COLO 205
  GI50: 16.6 µM (inactive)
SF-295
  GI50: 34.7 µM (inactive)
SK-MEL-5
  GI50: 17.7 µM (inactive)
MOLT-4
  GI50: 27.4 µM (inactive)
NCI-H23
  GI50: > 79.1 µM (inactive)
SR
  GI50: 15.7 µM (inactive)
CCRF-CEM
  GI50: 31.8 µM (inactive)
IGROV-1
  GI50: 56 µM (inactive)
SK-MEL-28
  GI50: 17.1 µM (inactive)
ACHN
  GI50: > 78.2 µM (inactive)
K562
  GI50: 20.9 µM (inactive)
HOP-92
  GI50: 22.8 µM (inactive)
MDA-N
  GI50: 19.1 µM (inactive)
SF-539
  GI50: 31.4 µM (inactive)
SK-MEL-2
  GI50: 17.4 µM (inactive)
RPMI-8226
  GI50: 31.4 µM (inactive)

## O=[N+]([O-])c1ccc2nc(-c3ccccn3)c(-c3ccccn3)nc2c1
Hs-578T
  GI50: > 100 µM (inactive)
NCI/ADR-RES
  GI50: > 100 µM (inactive)
SN12C
  GI50: > 100 µM (inactive)
HCT-15
  GI50: 43 µM
COLO 205
  GI50: 30.5 µM (inactive)
SF-295
  GI50: 96.8 µM (inactive)
SK-MEL-5
  GI50: 24.4 µM (inactive)
MOLT-4
  GI50: > 100 µM (inactive)
NCI-H23
  GI50: > 100 µM (inactive)
SR
  GI50: 33.1 µM (inactive)
CCRF-CEM
  GI50: 69.8 µM (inactive)
IGROV-1
  GI50: 94.6 µM (inactive)
SK-MEL-28
  GI50: > 100 µM (inactive)
ACHN
  GI50: 80 µM (inactive)
HOP-92
  GI50: > 100 µM (inactive)
MDA-N
  GI50: 45.4 µM (inactive)
SF-539
  GI50: 45.9 µM (inactive)
SK-MEL-2
  GI50: > 100 µM (inactive)
RPMI-8226
  GI50: > 100 µM (inactive)

## CC(=O)C(=[N+]=[N-])C(=O)N1CCOC1=O
Hs-578T
  GI50: > 10 µM (inactive)
NCI/ADR-RES
  GI50: > 10 µM (inactive)
SN12C
  GI50: > 10 µM (inactive)
HCT-15
  GI50: > 10 µM
COLO 205
  GI50: > 10 µM (inactive)
SF-295
  GI50: > 10 µM (inactive)
SK-MEL-5
  GI50: > 10 µM (inactive)
MOLT-4
  GI50: > 10 µM (inactive)
NCI-H23
  GI50: > 10 µM (inactive)
SR
  GI50: > 10 µM (inactive)
CCRF-CEM
  GI50: > 10 µM (inactive)
IGROV-1
  GI50: > 10 µM (inactive)
SK-MEL-28
  GI50: > 10 µM (inactive)
ACHN
  GI50: > 10 µM (inactive)
K562
  GI50: > 10 µM (inactive)
MDA-N
  GI50: > 10 µM (inactive)
SF-539
  GI50: > 10 µM (inactive)
SK-MEL-2
  GI50: > 10 µM (inactive)
RPMI-8226
  GI50: > 10 µM (inactive)

## COc1ccc(C=C2C(C)=NN(c3cccc(Cl)c3)C23C(Cl)C(=O)N3c2nc3ccccc3s2)cc1 (stereo not given)
Hs-578T
  GI50: 14.4 µM (inactive)
NCI/ADR-RES
  GI50: 20.3 µM (inactive)
HCT-15
  GI50: 16.8 µM
SF-295
  GI50: 22.1 µM (inactive)
SK-MEL-5
  GI50: 15.1 µM (inactive)
MOLT-4
  GI50: 15.9 µM (inactive)
NCI-H23
  GI50: 15 µM (inactive)
SR
  GI50: 21.6 µM (inactive)
CCRF-CEM
  GI50: 3.45 µM (inactive)
IGROV-1
  GI50: 16.4 µM (inactive)
SK-MEL-28
  GI50: 9.25 µM (inactive)
ACHN
  GI50: 21.5 µM (inactive)
K562
  GI50: 22.8 µM (inactive)
HOP-92
  GI50: 9.02 µM (inactive)
MDA-N
  GI50: 19.9 µM (inactive)
SF-539
  GI50: 30.5 µM (inactive)
SK-MEL-2
  GI50: 17.4 µM (inactive)
RPMI-8226
  GI50: 2.82 µM (inactive)

## C=CCNC1=C2C[C@@H](C)C[C@@H](OC)[C@H](OC(=O)CCCCN)[C@H](C)/C=C(\C)[C@@H](OC(N)=O)[C@H](OC)/C=C\C=C(/C)C(=O)NC(=CC1=O)C2=O
Hs-578T
  GI50: 25.6 µM (inactive)
NCI/ADR-RES
  GI50: > 100 µM (inactive)
SN12C
  GI50: 13 µM (inactive)
HCT-15
  GI50: 18.7 µM
COLO 205
  GI50: 5.22 µM (inactive)
SF-295
  GI50: 15.7 µM (inactive)
SK-MEL-5
  GI50: 11.6 µM (inactive)
MOLT-4
  GI50: 9.14 µM (inactive)
NCI-H23
  GI50: 14.6 µM (inactive)
SR
  GI50: 4.93 µM (inactive)
CCRF-CEM
  GI50: 7.01 µM (inactive)
IGROV-1
  GI50: 13.6 µM (inactive)
SK-MEL-28
  GI50: 18.5 µM (inactive)
ACHN
  GI50: 19.5 µM (inactive)
K562
  GI50: 9.62 µM (inactive)
HOP-92
  GI50: 18.8 µM (inactive)
MDA-N
  GI50: 8.55 µM (inactive)
SK-MEL-2
  GI50: 3.72 µM (inactive)
RPMI-8226
  GI50: 9.04 µM (inactive)

## N#Cc1c(N)n(-c2nc3ccccc3s2)c(=O)c2cc([N+](=O)[O-])ccc12
Hs-578T
  GI50: 9.16 µM (inactive)
NCI/ADR-RES
  GI50: 6.46 µM (inactive)
SN12C
  GI50: 23.1 µM (inactive)
HCT-15
  GI50: 4.04 µM
SF-295
  GI50: 9.2 µM (inactive)
MOLT-4
  GI50: 5.46 µM (inactive)
NCI-H23
  GI50: 9.38 µM (inactive)
SR
  GI50: 14.2 µM (inactive)
CCRF-CEM
  GI50: 0.0453 µM (active)
SK-MEL-28
  GI50: 26.7 µM (inactive)
ACHN
  GI50: 20.3 µM (inactive)
K562
  GI50: 15.7 µM (inactive)
HOP-92
  GI50: 14.1 µM (inactive)
MDA-N
  GI50: 25.9 µM (inactive)
SF-539
  GI50: 12.4 µM (inactive)
SK-MEL-2
  GI50: 15.4 µM (inactive)
RPMI-8226
  GI50: 10.8 µM (inactive)
